The results in this text go back to PubChem BioAssay (NCI).

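All cell lines were grown in 96-well plates and treated with compound for 48 hours. TGI: total growth inhibition.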 Some results are limits rather than exact numbers.

One experiment deals with MDA-MB-231 breast. The experiment is described as follows: growth of human tumour cells (NCI), 48 h.
`C=C(C)C1=CCC[C@]2(C1)N=C(OC)[C@@H](C(C)C)N=C2OC` gave a TGI above 100 µM.

For `O=C(NC1=NCC(CN2CCN(c3ccccc3)CC2)O1)Nc1ccccc1` (stereo not given), the TGI is above 100 µM.

`CC(=O)C(=C(c1ccccc1)c1ccccc1)c1ccccc1` displayed a TGI above 100 µM.

`CC1C2(C)OC(=N)C(C#N)(C(c3ccccc3)O2)C1(C#N)C#N` (stereo not given) had a TGI of 35.4 µM.

Compound `[N-]=[N+]=Nc1ccccc1C(=O)N1C(=O)c2ccccc2C(=O)N(C(=O)c2ccccc2N=[N+]=[N-])c2ccccc21` gave a TGI above 100 µM.

`O=C1NC2ON=C(c3ccccc3)C2C2ON=C(c3ccccc3)N12` (stereo not given) yielded a TGI above 100 µM.

As to `CCCCCCCCCCCCCCCCCCNC(=O)C(N)Cc1ccc(OCc2ccccc2)cn1` (stereo not given), the TGI came out at 38.3 µM.

In the case of `Cc1ccc2c(c1)[nH]c(=S)n2/C=C1\C(=O)Oc2ccccc2C1=O`, the TGI was above 100 µM.

`CC(C)Cn1cnc2c(NCC(C)O)nc3ccccc3c21` (stereo not given) registered a TGI above 100 µM.

Consider `COC1(OC)c2no[n+]([O-])c2CCC1O` (stereo not given), for which the TGI was above 100 µM.

`OC1(c2cccs2)c2cccc(Cl)c2C(O)(c2cccs2)c2c(Cl)cccc21` (stereo not given) had a TGI above 100 µM.

For `CN(C)Nc1cc(=O)[nH]c(=O)[nH]1`, the TGI is above 100 µM.

In the case of `O=[N+]([O-])/C(C(Cl)=C(Cl)Cl)=C(\N1CCOCC1)n1nnc2ccccc21`, the TGI was determined as 35.1 µM.

With `C=CCNC(=O)NC(=O)CSC1=NNC2(C(=O)N1)c1ccccc1-c1ccccc12`, the TGI is above 10 µM.

In turn, `O=c1c2c(oc3ccccc13)-c1ccccc1OC2` registered a TGI of 47.4 µM.

In turn, `C=CCOc1cccc(C2(O)c3ccccc3C3=NCCCN32)c1` (stereo not given) came in with a TGI above 100 µM.

`CCSc1[nH]c(NC(=S)NC(=O)c2ccccc2Cl)c(C(N)=O)c1C(N)=O`: the TGI is above 10 µM.

Regarding `O=C1CCCCC/C1=C\c1cccc(Cl)c1`, the TGI is above 100 µM.

Compound `COC(=O)C1(C(=O)OC)Cc2ccc(OC)cc2C2=C1C(=O)c1ccccc1C2=O` returned a TGI of 4.34 µM.

Turning to `CCc1c2c([nH]c(=S)c1C#N)CCC2`, the TGI is above 100 µM.

As to `O=C1/C(=C/c2cccc(F)c2)CCCc2ccccc21`, the TGI was 32.5 µM.

In the case of `C=CCN1C(=O)/C(=C/c2ccc(OC)cc2)N=C1SC/C=C/C`, the TGI is above 100 µM.

`Clc1ccc(NCc2nnc(CCCCCCCCc3nnc(CNc4ccc(Cl)cc4)o3)o2)cc1` displayed a TGI above 100 µM.

The compound `O=C(ON=C1c2ccccc2C(Br)C(Br)c2ccccc21)c1cc([N+](=O)[O-])cc([N+](=O)[O-])c1` (stereo not given) yielded a TGI of 35.6 µM.

Compound `O=C1C(Cl)C2(CC(/C=C/c3ccccc3Cl)=NN2c2cccc(S(=O)(=O)O)c2)N1c1nc2ccccc2s1` (stereo not given) had a TGI above 100 µM.

`Cc1nc2ccccc2n1COC(Cn1ccnc1)c1ccc(Cl)cc1Cl` (stereo not given) came in with a TGI above 100 µM.

For `Cn1c2ccccc2c2c(-c3ccccc3)cc3c(c21)C(=O)C=CC3=O`, the TGI stood at 5.72 µM.

In the case of `Nc1ncnn2c(C3OC(CO)C(O)C3O)ccc12` (stereo not given), the TGI was 1.11 µM.

On to `COCCOC(=O)c1c(C)n([O-])c2cc(Cl)c(Cl)cc2[n+]1=O`, for which the TGI was 53.8 µM.

Regarding `O=C(CC(=O)N(C(=O)/C=C\c1ccccc1)c1ccc(Cl)cc1)N1N=C(c2ccccc2)C(N=Nc2cccc([N+](=O)[O-])c2)C1=O` (stereo not given), the TGI was determined as 37.7 µM.

`Cc1cc(=O)[nH]c(-n2[nH]c(C)c(CCO)c2=O)n1` returned a TGI above 100 µM.

The compound `COc1ccc2[nH]cc(CCNC(=O)[C@H](Cc3ccccc3)NC(=O)[C@@H](NCC(F)(F)F)C(C)C)c2c1` came in with a TGI of 35.9 µM.

Take `CCOC(=O)c1cnc2oc3ccc(O)cc3c2c1C`: the TGI was above 100 µM.

`C1=NCCN2CCN(CCN=Cc3ccc(cc3)OCc3cccc(n3)COc3ccc1cc3)CC2` came in with a TGI above 50 µM.

Consider `COC(=O)[C@@H]1CN(C(C)=O)C(=O)N1`, for which the TGI was above 100 µM.

On to `CCc1n[nH]c(=O)n1/N=C/c1c(O)ccc2ccccc12`, for which the TGI was above 100 µM.

For `Cn1c(=O)c(Br)c(C=O)n(CCO[N+](=O)[O-])c1=O`, the TGI came out at 8.4 µM.

In turn, `NC(N)=N/N=C/c1c(-c2ccc(Cl)cc2)nc2sccn12` returned a TGI of 8.15 µM.

In another experiment the test system is BT-549 breast. Put plainly: growth of human tumour cells (NCI), 48 h.
The compound `O=C1/C(=C/c2cccc(Br)c2)CCc2ccccc21` yielded a TGI of 22.2 µM.

Regarding `CNc1ncnc2c1ncn2C1C=CC(COS(N)(=O)=O)C1` (stereo not given), the TGI was above 100 µM.

As to `CCOc1cc(NC(C)=O)ccc1C(=O)NN1C(=O)C(Cl)C1c1ccccc1` (stereo not given), the TGI came to 25.6 µM.

Compound `COC1=C(OC)C(=O)C(Cc2c(Cl)nc3sc(C)cn23)=C(C)C1=O` showed a TGI of 34.2 µM.

Compound `CCCCCCCCCCCCCCCCCCNc1ccn(C2OC(COP(=O)(O)OCC3OC(n4cc(F)c(=O)[nH]c4=O)CC3O)C(O)C2O)c(=O)n1` (stereo not given) came in with a TGI above 79.7 µM.

`O=C(CN1CCCCC1)Nc1ccc2sc3ccccc3c(=O)c2n1` registered a TGI of 43.1 µM.

Regarding `CC(C)=CCC/C(C)=C/CC/C(C)=C/CC/C(C)=C/C=C/C=C(\C)CC/C=C(\C)CC/C=C(\C)CCC=C(C)C`, the TGI is above 100 µM.

On to `CCOC(=O)/C(C#N)=C\c1ccc(N(CCC(=O)O)CCC(=O)O)c(I)c1`, for which the TGI is above 10 µM.

Consider `CN(CCCCCl)P(=O)(OCc1ccc([N+](=O)[O-])o1)OC[C@H]1O[C@@H](n2cc(F)c(=O)[nH]c2=O)C[C@@H]1O` (stereo not given in full), for which the TGI was 49.1 µM.

As for `CCOC(=O)P(=O)(O)c1ccc(N(C)Cc2ccccc2)cc1`, the TGI was above 100 µM.

`C=C(C)C1=CCC[C@]2(C1)N=C(OC)[C@@H](C(C)C)N=C2OC` returned a TGI above 100 µM.

On to `O=C(NC1=NCC(CN2CCN(c3ccccc3)CC2)O1)Nc1ccccc1` (stereo not given), for which the TGI was above 100 µM.

In turn, `Cc1cc2ccccc2n2c1nc1ccccc12` gave a TGI above 100 µM.

`CC(=O)C(=C(c1ccccc1)c1ccccc1)c1ccccc1`: the TGI was above 100 µM.

In turn, `CC1C2(C)OC(=N)C(C#N)(C(c3ccccc3)O2)C1(C#N)C#N` (stereo not given) came in with a TGI above 100 µM.

For the compound `[N-]=[N+]=Nc1ccccc1C(=O)N1C(=O)c2ccccc2C(=O)N(C(=O)c2ccccc2N=[N+]=[N-])c2ccccc21`, the TGI is above 100 µM.

For the compound `O=C1NC2ON=C(c3ccccc3)C2C2ON=C(c3ccccc3)N12` (stereo not given), the TGI was above 100 µM.
